Reference: US6737383B1, “Herbicidal oxadiazolidines” (priority 1999, dated 2004)

Experiments:
bedstraw = test: Test B pre/postemergence bedstraw; type: in vivo, Galium aparine
In short: (§1)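 Response is a visual 0-to-10 score relative to untreated plants, where 0 means no effect and 10 means complete control, taken twelve to sixteen days after application. Treatments went onto soil at planting and onto foliage of 1- to 4-leaf plants, using a surfactant-containing non-phytotoxic solvent.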

blackgrass = test: Test B pre/postemergence blackgrass; type: in vivo, Alopecurus myosuroides
In short: as §1

surinam grass = test: Test B pre/postemergence surinam grass; type: in vivo, Brachiaria decumbens
In short: as §1

corn = test: Test B pre/postemergence corn; type: in vivo, Zea mays
In short: as §1

crabgrass = test: Test B pre/postemergence crabgrass; type: in vivo, Digitaria sanguinalis
In short: as §1

giant foxtail = test: Test B pre/postemergence giant foxtail; type: in vivo, Setaria faberii
In short: as §1

rape = test: Test B pre/postemergence rape; type: in vivo, Brassica napus
In short: as §1

sugar beet = test: Test B pre/postemergence sugar beet; type: in vivo, Beta vulgaris; conditions: for Plant response rating, Sugarbeets: Postemergence
In short: as §1

velvetleaf = test: Test B pre/postemergence velvetleaf; type: in vivo, Abutilon theophrasti; conditions: for Plant response rating, Velvetleaf: Postemergence
In short: as §1

wheat = test: Test B pre/postemergence wheat; type: in vivo, Triticum aestivum; conditions: for Plant response rating, Wheat: Postemergence
In short: as §1

wild oat = test: Test B pre/postemergence wild oat; type: in vivo, Avena fatua; conditions: for Plant response rating, Wild oats: Postemergence
In short: as §1

purple nutsedge = test: Test B pre/postemergence purple nutsedge; type: in vivo, Cyperus rotundus
In short: as §1

rice = test: Test B flood test rice; type: in vivo, Oryza sativa
In short: (§2)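 Flood test on plants grown to the 2-leaf stage; treated plants kept in greenhouse twelve to sixteen days, then visually rated against controls on a 0 (no effect) to 10 (complete control) scale.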

smallflower flatsedge = test: Test B flood test smallflower flatsedge; type: in vivo, Cyperus difformis
In short: as §2

duck salad = test: Test B flood test duck salad; type: in vivo, Heteranthera limosa
In short: as §2

bamyardgrass = test: Test B flood test barnyardgrass; type: in vivo, Echinochloa crus-galli
In short: as §2

[1] = Postemergence, Rate 62 g/ha, scale of 0 to 10, 0 is no effect, 10 is complete control
[2] = Postemergence, Rate 125 g/ha, scale 0 to 10, 0 is no effect, 10 is complete control
[3] = Postemergence, Rate 500 g/ha, scale of 0 to 10 where 0 is no effect and 10 is complete control
[4] = Preemergence, Rate 62 g/ha, scale 0 to 10 (0 no effect, 10 complete control)
[5] = Preemergence, Rate 125 g/ha, scale 0 to 10, 0 is no effect, 10 is complete control
[6] = Preemergence, Rate 500 g/ha, scale of 0 to 10 where 0 is no effect and 10 is complete control
[7] = Rate 250 g/ha, Postemergence, scale of 0 to 10 where 0 is no effect and 10 is complete control
[8] = Rate 500 g/ha, scale of 0 to 10 where 0 is no effect and 10 is complete control
[9] = Rate 250 g/ha, scale of 0 to 10 where 0 is no effect and 10 is complete control
[10] = Rate 62 g/ha, flood test species, Pre-emergence, visual evaluation after twelve to sixteen days
[11] = Rate 125 g/ha, under heading Pre-emergence, flood test species, visual evaluation after twelve to sixteen days
[12] = Rate 250 g/ha, Pre-emergence (flood test species), scale 0 to 10, 0 is no effect, 10 is complete control
[13] = Rate 500 g/ha, Pre-emergence section of Table B, 0 to 10 scale (0 no effect, 10 complete control)

## CC(C)N(C(=O)n1oc(=O)n(CCc2ccccc2)c1=O)c1ccccc1 [Compound 567]
bedstraw; [1]
  Bedstraw plant response rating: 0
bedstraw; [2]
  Bedstraw plant response rating: 0
bedstraw; [3]
  Plant response rating, Bedstraw: 0
bedstraw; [4]
  Bedstraw plant response rating: 0
bedstraw; [5]
  Bedstraw plant response rating: 0
bedstraw; Preemergence, Rate 250 g/ha
  Bedstraw plant response rating (0 to 10 scale): 0
bedstraw; [6]
  Bedstraw plant response rating: 0
bedstraw; [7]
  Plant response rating, Bedstraw: 0
blackgrass; [1]
  Blackgrass plant response rating: 0
blackgrass; [2]
  Blackgrass plant response rating: 0
blackgrass; [3]
  Plant response rating, Blackgrass: 0
blackgrass; [4]
  Blackgrass plant response rating: 0
blackgrass; [5]
  Blackgrass plant response rating: 0
blackgrass; Preemergence, Rate 250 g/ha
  Blackgrass plant response rating (0 to 10 scale): 0
blackgrass; [6]
  Blackgrass plant response rating: 7
blackgrass; [7]
  Plant response rating, Blackgrass: 0
Surinam grass; [1]
  B. signalgrass plant response rating: 0
Surinam grass; [2]
  B. signalgrass plant response rating: 0
Surinam grass; [3]
  Plant response rating, B. signalgrass: 0
Surinam grass; [4]
  B. signalgrass plant response rating: 0
Surinam grass; [5]
  B. signalgrass plant response rating: 0
Surinam grass; Preemergence, Rate 250 g/ha
  B. signalgrass plant response rating (0 to 10 scale, 0 is no effect, 10 is complete control): 2
Surinam grass; [6]
  B. signalgrass plant response rating: 9
Surinam grass; [7]
  Plant response rating, B. signalgrass: 0
corn; [1]
  Corn plant response rating: 0
corn; [2]
  Corn plant response rating: 0
corn; [3]
  Plant response rating, Corn: 0
corn; [4]
  Corn plant response rating: 0
corn; [5]
  Corn plant response rating: 0
corn; Preemergence, Rate 250 g/ha
  Corn plant response rating (0 to 10 scale): 0
corn; [6]
  Corn plant response rating: 5
corn; [7]
  Plant response rating, Corn: 0
crabgrass; [1]
  Crabgrass plant response rating: 3
crabgrass; [2]
  Crabgrass plant response rating: 7
crabgrass; [3]
  Plant response rating, Crabgrass: 8
crabgrass; [4]
  Crabgrass plant response rating: 0
crabgrass; [5]
  Crabgrass plant response rating: 9
crabgrass; Preemergence, Rate 250 g/ha
  Crabgrass plant response rating (0 to 10 scale): 9
crabgrass; [6]
  Crabgrass plant response rating: 9
crabgrass; [7]
  Plant response rating, Crabgrass: 7
Giant foxtail; [1]
  Giant foxtail plant response rating: 0
Giant foxtail; [2]
  Giant foxtail plant response rating: 0
Giant foxtail; [3]
  Plant response rating, Giant foxtail: 0
Giant foxtail; [4]
  Giant foxtail plant response rating: 3
Giant foxtail; [5]
  Giant foxtail plant response rating: 9
Giant foxtail; Preemergence, Rate 250 g/ha
  Giant foxtail plant response rating (0 to 10 scale): 10
Giant foxtail; [6]
  Giant foxtail plant response rating: 9
Giant foxtail; [7]
  Plant response rating, Giant foxtail: 0
rape; [1]
  Rape plant response rating: 0
rape; [2]
  Rape plant response rating: 0
rape; [3]
  Plant response rating, Rape: 0
rape; [4]
  Rape plant response rating: 0
rape; [5]
  Rape plant response rating: 0
rape; Preemergence, Rate 250 g/ha
  Rape plant response rating (0 to 10 scale): 0
rape; [6]
  Rape plant response rating: 0
rape; [7]
  Plant response rating, Rape: 0
Sugar beet; [8]
  Plant response rating, Sugarbeets: 0
Sugar beet; [4]
  Sugarbeets plant response rating: 0
Sugar beet; [5]
  Sugarbeets plant response rating: 0
Sugar beet; Preemergence, Rate 250 g/ha
  Sugarbeets plant response rating (0 to 10 scale): 0
Sugar beet; [6]
  Sugarbeets plant response rating: 2
Sugar beet; [9]
  Plant response rating, Sugarbeets: 0
velvetleaf; [8]
  Plant response rating, Velvetleaf: 2
velvetleaf; [4]
  Velvetleaf plant response rating: 0
velvetleaf; [5]
  Velvetleaf plant response rating: 0
velvetleaf; Preemergence, Rate 250 g/ha
  Velvetleaf plant response rating (0 to 10 scale): 0
velvetleaf; [6]
  Velvetleaf plant response rating: 0
velvetleaf; [9]
  Plant response rating, Velvetleaf: 0
wheat; [8]
  Plant response rating, Wheat: 0
wheat; [4]
  Wheat plant response rating: 0
wheat; [5]
  Wheat plant response rating: 0
wheat; Preemergence, Rate 250 g/ha
  Wheat plant response rating (0 to 10 scale): 0
wheat; [6]
  Wheat plant response rating: 0
wheat; [9]
  Plant response rating, Wheat: 0
Wild oat; [8]
  Plant response rating, Wild oats: 0
Wild oat; [4]
  Wild oats plant response rating: 0
Wild oat; [5]
  Wild oats plant response rating: 0
Wild oat; Preemergence, Rate 250 g/ha
  Wild oats plant response rating (0 to 10 scale): 0
Wild oat; [6]
  Wild oats plant response rating: 0
Wild oat; [9]
  Plant response rating, Wild oats: 0
Purple nutsedge; [1]
  Nutsedge plant response rating: 4
Purple nutsedge; [3]
  Plant response rating, Nutsedge: 0
Purple nutsedge; [4]
  Nutsedge plant response rating: 0
Purple nutsedge; [5]
  Nutsedge plant response rating: 0
Purple nutsedge; Preemergence, Rate 250 g/ha
  Nutsedge plant response rating (0 to 10 scale): 0
Purple nutsedge; [6]
  Nutsedge plant response rating: 0
rice; [10]
  Plant response rating, Rice (0 to 10 scale, 0 is no effect, 10 is complete control): 0
rice; [11]
  Rice plant response rating (0 to 10 scale, 0 is no effect, 10 is complete control): 0
rice; [12]
  Rice plant response rating: 0
rice; [13]
  Rice plant response rating: 0
Smallflower flatsedge; [10]
  Plant response rating, S. Flatsedge (0 to 10 scale, 0 is no effect, 10 is complete control): 0
Smallflower flatsedge; [11]
  S. Flatsedge plant response rating (0 to 10 scale, 0 is no effect, 10 is complete control): 0
Smallflower flatsedge; [12]
  S. Flatsedge plant response rating: 0
Smallflower flatsedge; [13]
  S. Flatsedge plant response rating: 0
Duck salad; [10]
  Plant response rating, Ducksalad (0 to 10 scale, 0 is no effect, 10 is complete control): 0
Duck salad; [11]
  Ducksalad plant response rating (0 to 10 scale, 0 is no effect, 10 is complete control): 0
Duck salad; [12]
  Ducksalad plant response rating: 0
Duck salad; [13]
  Ducksalad plant response rating: 0
bamyardgrass; [10]
  Plant response rating, Barnyardgrass (0 to 10 scale, 0 is no effect, 10 is complete control): 0
bamyardgrass; [11]
  Barnyardgrass plant response rating (0 to 10 scale, 0 is no effect, 10 is complete control): 0
bamyardgrass; [12]
  Barnyardgrass plant response rating: 0
bamyardgrass; [13]
  Barnyardgrass plant response rating: 0
